In brackets after ≈: the same amount, converted by molar mass. Blank lines part the entries; values can stand above or below the compound they belong to. Activity calls are given as the source filed them. No cut-off for these calls is given here.
What was measured:
Mycoplasma genitalium [1] = assay: Antibacterial activity against Mycoplasma genitalium G37 assessed as bacterial growth inhibition incubated for 7 days by microbroth dilution assay; format: functional; details: Mycoplasmoides genitalium, G37, 168 h; time 7 day
Mycoplasma genitalium [2] = assay: Antibacterial activity against Mycoplasma genitalium Sea-2 assessed as bacterial growth inhibition incubated for 7 days by microbroth dilution assay; format: functional; details: Mycoplasmoides genitalium, Sea-2, 168 h; time 7 day
[3] = Metal chelating activity assessed as compound-Cobalt complex formation by UV-Vis spectrophotometric analysis
[4] = Selectivity index, ratio of IC50 for African green monkey Vero cells to IC50 for Mycoplasma genitalium G37; format: toxicity; details: read-out: Ratio IC50
[5] = Metal chelating activity assessed as compound-copper complex formation by UV-Vis spectrophotometric analysis
[6] = Metal chelating activity assessed as compound-magnesium complex formation by UV-Vis spectrophotometric analysis
Mycoplasma genitalium [7] = assay: Antibacterial activity against Mycoplasma genitalium assessed as bacterial growth inhibition in SP-4 broth medium supplemented with DPP and ferric chloride at 0.64 uM measured after 2 hrs by absorbance based analysis; format: functional, organism-based; details: Mycoplasmoides genitalium
Mycoplasma genitalium [8] = assay: Bacteriostatic activity against Mycoplasma genitalium G37 assessed as bacterial growth inhibition at 4 times MIC measured after 7 days by time-kill assay relative to control; format: functional, Mycoplasmoides genitalium; set-up: scale not given: the % may be the effect or the level left; details: time 7 day
[9] = Selectivity index, ratio of IC50 for human WIL-2N cells to IC50 for Mycoplasma genitalium G37; format: toxicity; details: read-out: Ratio IC50
Mycoplasma genitalium [10] = assay: Antibacterial activity against Mycoplasma genitalium G37 assessed as bacterial growth inhibition by qPCR analysis; format: functional, organism-based; details: Mycoplasmoides genitalium
Mycoplasma genitalium [11] = assay: Antibacterial activity against Mycoplasma genitalium at 0.28 to 1.12 measured after >1 month; format: functional, organism-based; details: Mycoplasmoides genitalium; time > 1.0 months
Mycoplasma genitalium [12] = assay: Antibacterial activity against Mycoplasma genitalium assessed as bacterial growth inhibition in SP-4 broth medium supplemented with TPEN at 0.64 uM measured after 2 hrs by absorbance based analysis; format: functional, organism-based; details: Mycoplasmoides genitalium
Mycoplasma genitalium [13] = assay: Antibacterial activity against Mycoplasma genitalium Sea-2 assessed as bacterial growth inhibition by qPCR analysis; format: functional, organism-based; details: Mycoplasmoides genitalium
Mycoplasma genitalium [14] = assay: Antibacterial activity against Mycoplasma genitalium G37 assessed as bacterial growth inhibition at 0.29 to 0.58 uM incubated for 7 days by time-kill assay; format: functional, organism-based; details: Mycoplasmoides genitalium, dose 0.29-0.58 µM, time 7.0 day
[15] = Selectivity index, ratio of IC50 for human HeLa cells to IC50 for Mycoplasma genitalium G37; format: toxicity; details: read-out: Ratio IC50
Mycoplasma genitalium [16] = assay: Antibacterial activity against Mycoplasma genitalium Sea-1 assessed as bacterial growth inhibition by qPCR analysis; format: functional, organism-based; details: Mycoplasmoides genitalium
Mycoplasma genitalium [17] = assay: Antibacterial activity against Mycoplasma genitalium at >0.3 uM; format: functional, organism-based; details: Mycoplasmoides genitalium
[18] = Metal chelating activity assessed as compound-Fe3+ complex formation by UV-Vis spectrophotometric analysis
Mycoplasma genitalium [19] = assay: Antibacterial activity against Mycoplasma genitalium M2300 assessed as bacterial growth inhibition incubated for 7 days by microbroth dilution assay; format: functional; details: Mycoplasmoides genitalium, M2300, 168 h; time 7 day
[20] = Metal chelating activity assessed as compound-Nickel complex formation by UV-Vis spectrophotometric analysis
[21] = Metal chelating activity assessed as compound-manganese complex formation by UV-Vis spectrophotometric analysis
Mycoplasma genitalium [22] = assay: Antibacterial activity against Mycoplasma genitalium assessed as bacterial growth inhibition in SP-4 broth medium supplemented with DPP at 0.08 to 0.64 uM measured after 2 hrs by absorbance based analysis; format: functional, organism-based; details: Mycoplasmoides genitalium, dose 0.08-0.64 µM
[23] = Metal chelating activity assessed as compound-zinc complex formation by UV-Vis spectrophotometric analysis
[24] = Metal chelating activity assessed as compound-calcium complex formation by UV-Vis spectrophotometric analysis
Mycoplasma genitalium [25] = assay: Antibacterial activity against Mycoplasma genitalium G37 assessed as bacterial growth inhibition at 1.16 uM incubated for 7 days by time-kill assay relative to control; format: functional, Mycoplasmoides genitalium; set-up: scale not given: the % may be the effect or the level left; details: time 7 day
[26] = Selectivity index, ratio of IC50 for human HepG2 cells to IC50 for Mycoplasma genitalium G37; format: toxicity; details: read-out: Ratio IC50
Mycoplasma genitalium [27] = assay: Antibacterial activity against Mycoplasma genitalium assessed as bacterial growth inhibition in SP-4 broth medium supplemented with TPEN and zinc chloride at 0.64 uM measured after 2 hrs by absorbance based analysis; format: functional, organism-based; details: Mycoplasmoides genitalium
Mycoplasma genitalium [28] = assay: Potentiation of hydrogen peroxide sensitivity in Mycoplasma genitalium assessed as reduction in bactericidal concentration of hydrogen peroxide at 0.32 uM measured after 7 days by checkerboard technique (reference value: 7 mM); format: functional, Mycoplasmoides genitalium; details: time 7 day
Mycoplasma genitalium [29] = assay: Antibacterial activity against Mycoplasma genitalium Sea-1 assessed as bacterial growth inhibition incubated for 7 days by microbroth dilution assay; format: functional; details: Mycoplasmoides genitalium, Sea-1, 168 h; time 7 day
Mycoplasma genitalium [30] = assay: Antibacterial activity against Mycoplasma genitalium M2282 assessed as bacterial growth inhibition incubated for 7 days by microbroth dilution assay; format: functional; details: Mycoplasmoides genitalium, M2282, 168 h; time 7 day

MIC (Mycoplasma genitalium [1]): > 80 µM
SMILES: C[C@@H]1C[C@H](C)[C@H]2c3c(cc[nH]c3=O)O[C@H](C)[C@@]2(C)C1

MIC (Mycoplasma genitalium [1]): > 80 µM
SMILES: COn1ccc2c(c1=O)[C@@H]1[C@@H](C)C[C@@H](C)C[C@]1(C)[C@@H](C)O2

MIC (Mycoplasma genitalium [2]): 0.32 µM (≈ 0.0888 µg/mL)
Activity [3]: inactive
MIC (Mycoplasma genitalium [1]): 0.32 µM (≈ 0.0888 µg/mL)
Activity [5]: inactive
Activity [6]: inactive
Activity [18]: Active
MIC (Mycoplasma genitalium [19]): 0.16 µM (≈ 0.0444 µg/mL)
Activity [20]: inactive
Activity [21]: inactive
Activity [23]: inactive
Activity [24]: inactive
MIC (Mycoplasma genitalium [29]): 0.16 µM (≈ 0.0444 µg/mL)
MIC (Mycoplasma genitalium [30]): 0.16 µM (≈ 0.0444 µg/mL)
SMILES: C[C@@H]1C[C@H](C)[C@H]2c3c(ccn(O)c3=O)O[C@H](C)[C@@]2(C)C1
selectivity ratio [4]: > 32
Activity (Mycoplasma genitalium [7]): Active
Activity (Mycoplasma genitalium [8]): >99.9%
selectivity ratio [9]: > 32
IC50 (Mycoplasma genitalium [10]): 90 nM
IC90 (Mycoplasma genitalium [10]): 120 nM
Activity (Mycoplasma genitalium [11]): inactive
Activity (Mycoplasma genitalium [12]): inactive
IC50 (Mycoplasma genitalium [13]): 60 nM
IC90 (Mycoplasma genitalium [13]): 110 nM
Activity (Mycoplasma genitalium [14]): Active
selectivity ratio [15]: > 32
IC50 (Mycoplasma genitalium [16]): 100 nM
IC90 (Mycoplasma genitalium [16]): 120 nM
Activity (Mycoplasma genitalium [17]): inactive
Activity (Mycoplasma genitalium [22]): inactive
Activity (Mycoplasma genitalium [25]): 84.2%
selectivity ratio [26]: > 32
Activity (Mycoplasma genitalium [27]): Active
Activity (Mycoplasma genitalium [28]): 1.8 mM

More lines, now with the values behind:

SMILES: C=C[C@H]1C[C@@H](C)C[C@@H](C)[C@@H]1c1c(O)ccn(O)c1=O
MIC (Mycoplasma genitalium [1]): > 95 µM

SMILES: COn1ccc(O)c([C@@H]2[C@@H](C)C[C@@H](C)C[C@](C)(O)[C@H]2C)c1=O
MIC (Mycoplasma genitalium [1]): > 80 µM

SMILES: C[C@@H]1C[C@H](C)[C@@H](c2c(O)cc[nH]c2=O)[C@H](C)[C@@](C)(O)C1 [DEOXYAKANTHOMYCIN]
MIC (Mycoplasma genitalium [1]): > 80 µM
